Measured values from ChEMBL document CHEMBL4699535, “Dolabellane and Clerodane Diterpenoids from the Twigs and Leaves of Casearia kurzii” (J Nat Prod, 2020).
Each block holds one compound with its values, some of them ahead of it.

How the values were obtained:
A549 [1] = test: Induction of cell cycle arrest in human A549 cells assessed as accumulation at G0/G1 phase at 20 uM after 24 hrs by propodium iodide staining based flow cytometric analysis (reference value: 60.74 to 65.6%); type: functional
A549 [2] = test: Induction of cell cycle arrest in human A549 cells assessed as accumulation at S phase at 5 uM after 24 hrs by propodium iodide staining based flow cytometric analysis (reference value: 23.42 to 28.6%); type: functional
A549 [3] = test: Induction of cell cycle arrest in human A549 cells assessed as accumulation at G2/M phase at 10 uM after 24 hrs by propodium iodide staining based flow cytometric analysis (reference value: 10.66 to 10.98%); type: functional
A549 [4] = test: Induction of cell cycle arrest in human A549 cells assessed as accumulation at G0/G1 phase at 5 uM after 24 hrs by propodium iodide staining based flow cytometric analysis (reference value: 60.74 to 65.6%); type: functional
A549 [5] = test: Induction of cell cycle arrest in human A549 cells assessed as accumulation at G2/M phase at 20 uM after 24 hrs by propodium iodide staining based flow cytometric analysis (reference value: 10.66 to 10.98%); type: functional
A549 [6] = test: Induction of cell cycle arrest in human A549 cells assessed as accumulation at G2/M phase at 5 uM after 24 hrs by propodium iodide staining based flow cytometric analysis (reference value: 10.66 to 10.98%); type: functional
A549 [7] = test: Induction of cell cycle arrest in human A549 cells assessed as accumulation at S phase at 20 uM after 24 hrs by propodium iodide staining based flow cytometric analysis (reference value: 23.42 to 28.6%); type: functional
A549 [8] = test: Induction of apoptosis in human A549 cells assessed as early apoptotic cells at 20 uM after 24 hrs by Annexin-V FITC/PI staining based flow cytometry analysis (reference value: 3.97 to 4.33%); type: functional
A549 [9] = test: Induction of apoptosis in human A549 cells assessed as late apoptotic cells at 20 uM after 24 hrs by Annexin-V FITC/PI staining based flow cytometry analysis (reference value: 9.6%); type: functional
A549 [10] = test: Induction of cell cycle arrest in human A549 cells assessed as accumulation at G0/G1 phase at 10 uM after 24 hrs by propodium iodide staining based flow cytometric analysis (reference value: 60.74 to 65.6%); type: functional
A549 [11] = test: Antiproliferative activity against human A549 cells assessed as reduction in cell viability after 24 to 72 hrs by MTT assay; type: functional, cell-based
A549 [12] = test: Induction of apoptosis in human A549 cells assessed as early apoptotic cells at 10 uM after 24 hrs by Annexin-V FITC/PI staining based flow cytometry analysis (reference value: 3.97 to 4.33%); type: functional
A549 [13] = test: Induction of cell cycle arrest in human A549 cells assessed as accumulation at S phase at 10 uM after 24 hrs by propodium iodide staining based flow cytometric analysis (reference value: 23.42 to 28.6%); type: functional
A549 [14] = test: Induction of apoptosis in human A549 cells assessed as late apoptotic cells at 10 uM after 24 hrs by Annexin-V FITC/PI staining based flow cytometry analysis (reference value: 9.6%); type: functional
[15] = target: NAD(P)H dehydrogenase [quinone] 1 (Mus musculus) (UniProt Q64669); test: Induction of quinone reductase in mouse Hepa1c1c7 cells at 100 uM incubated for 24 hrs by MTT based assay; type: cell-based; conditions: filed as activator
[16] = target: NAD(P)H dehydrogenase [quinone] 1 (Mus musculus) (UniProt Q64669); test: Induction of quinone reductase in mouse Hepa1c1c7 cells at 50 uM incubated for 24 hrs by MTT based assay; type: cell-based; conditions: filed as activator
[17] = Homo sapiens, A549, read-out: IC50

NAD(P)H dehydrogenase [quinone] 1 (Mus musculus), sequence (Q64669 whole entry): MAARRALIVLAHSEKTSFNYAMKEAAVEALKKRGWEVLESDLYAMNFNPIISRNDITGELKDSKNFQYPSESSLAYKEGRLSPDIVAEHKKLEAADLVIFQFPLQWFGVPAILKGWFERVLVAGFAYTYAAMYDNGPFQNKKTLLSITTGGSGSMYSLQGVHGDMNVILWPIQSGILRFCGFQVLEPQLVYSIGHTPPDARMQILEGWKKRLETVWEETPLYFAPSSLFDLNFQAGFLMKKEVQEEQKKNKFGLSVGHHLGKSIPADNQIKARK

IC50 (A549 [11]; [17]): 4.6 µM
SMILES: C=CC(=C)[C@H](O)C[C@]1(C)[C@H](C)C[C@H](O)[C@@]23C(=C[C@H](OC(=O)CC(C)C)C[C@@H]12)[C@@H](OC(C)=O)O[C@H]3OC(C)=O
Activity (A549 [1]): 38.95%
Activity (A549 [2]): 24.62%
Activity (A549 [3]): 13.21%
Activity (A549 [4]): 64.17%
Activity (A549 [5]): 0%
Activity (A549 [6]): 11.21%
Activity (A549 [7]): 61.05%
Activity (A549 [8]): 10.41%
Activity (A549 [9]): 35.73%
Activity (A549 [10]): 55.45%
Activity (A549 [12]): 5.44%
Activity (A549 [13]): 31.33%
Activity (A549 [14]): 10.45%

IC50 (A549 [11]; a549): Not Active
fold change (FC) [15]: 1.5
SMILES: C/C1=C/C[C@@H]2[C@@](C)(C/C=C(\C)CC[C@@H]1O)CC[C@@]2(O)C(C)C

IC50 (A549 [11]; a549): Not Active
fold change (FC) [16]: 1.4
SMILES: CC1=CC[C@H](O)[C@@]2(C)CC[C@@H]3[C@](C)(CC[C@@]3(O)C(C)C)C[C@H]12

IC50 (A549 [11]; a549): Not Active
SMILES: C=C/C(C)=C/C[C@]1(C)[C@H](C)C[C@H](OC(=O)C(C)C)[C@@]23C(=C[C@H](O)C[C@@H]12)[C@@H](OC(C)=O)O[C@H]3OC(C)=O

IC50 (A549 [11]; [17]): 4.4 µM
SMILES: CC(=O)O[C@H]1O[C@@H](OC(C)=O)[C@]23C1=C[C@H](OC(=O)CC(C)C)C[C@H]2[C@](C)(C/C=C(\C)C=O)[C@H](C)C[C@@H]3O
Activity (A549 [1]): 44.84%
Activity (A549 [2]): 27.45%
Activity (A549 [3]): 19.14%
Activity (A549 [5]): 20.56%
Activity (A549 [6]): 11.09%
Activity (A549 [7]): 34.59%
Activity (A549 [8]): 13.7%
Activity (A549 [9]): 25.27%
Activity (A549 [10]): 56.99%
Activity (A549 [12]): 6.04%
Activity (A549 [13]): 23.87%
Activity (A549 [14]): 9.94%

IC50 (A549 [11]; a549): Not Active
fold change (FC) [15]: 1.5
SMILES: C=C1CC[C@@H]2[C@@](C)(C/C=C(\C)CC[C@@H]1O)CC[C@@]2(O)C(C)C

IC50 (A549 [11]; a549): Not Active
fold change (FC) [15]: 1.5
SMILES: C/C1=C\C[C@@]2(C)CC[C@@](O)(C(C)C)[C@@H]2C/C=C(\C)[C@@H](O)CC1

IC50 (A549 [11]; a549): Not Active
SMILES: CC1=C2C[C@@]3(C)CC[C@@](O)(C(C)C)[C@@H]3CC[C@]2(C)[C@@H](O)CC1

IC50 (A549 [11]; a549): Not Active
SMILES: CC(=O)O[C@H]1O[C@@H](OC(C)=O)[C@]23C1=C[C@H](OC(=O)CC(C)C)C[C@H]2[C@](C)(C/C=C/C=O)[C@H](C)C[C@@H]3O

IC50 (A549 [11]; a549): Not Active
fold change (FC) [15]: 1.5
SMILES: C/C1=C\CC[C@]2(C)O[C@H]2C[C@@H]2C(=O)C=C(C(C)C)[C@@]2(O)CC1

IC50 (A549 [11]; a549): Not Active
SMILES: CC(=O)O[C@H]1O[C@@H](OC(C)=O)[C@]23C1=C[C@H](OC(=O)C(C)C)C[C@H]2[C@](C)(C/C=C(\C)C=O)[C@H](C)C[C@@H]3O

IC50 (A549 [11]; a549): Not Active
SMILES: C=C/C(C)=C/C[C@]1(C)[C@H](C)C[C@H](OC(=O)CC(C)C)[C@@]23C(=C[C@H](O)C[C@@H]12)[C@@H](OC(C)=O)O[C@H]3OC(C)=O

IC50 (A549 [11]; a549): Not Active
fold change (FC) [15]: 1.9
SMILES: C/C1=C\CC[C@@]2(C)O[C@@H]2C[C@H]2C(=O)C=C(C(C)C)[C@]2(O)CC1

IC50 (A549 [11]; a549): Not Active
SMILES: C=C/C(C)=C/C[C@]1(C)[C@H](C)C[C@H](OC(=O)[C@@H](C)CC)[C@@]23C(=C[C@H](O)C[C@@H]12)[C@@H](OC(C)=O)O[C@H]3OC(C)=O

IC50 (A549 [11]; a549): Not Active
SMILES: C=C/C(C)=C/C[C@]1(C)[C@H](C)C[C@H](OC(=O)[C@@H](C)CC)[C@@]23C(=CC(=O)C[C@@H]12)[C@@H](OC(C)=O)O[C@H]3OC(C)=O
